Laboratory results: the supplement of paper PMC11208160

test: recombinant UMI read abundance after kanamycin selection (control-corrected) (log10(CPM+1)); higher = more efficient recombination; extreme values may be limits of the assay; sequences stand for … in AGTGCAGAGAAAATCGGCCAGTTTTCTCTGCCTGCAGTCCGCATGCCGTGGGACCCCTTGGGTTCTAACCTGTTGCCTAGATTTATGCAGCGGACTGCCTTTCTCCCAAAGTGATAAACCGG…AGGTTGGTTTCACT; site = the 11-nt donor
Method in brief: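 Two replicates each of selected and unselected plating were used in this pooled Escherichia coli screen of donor and donor-binding-loop pairs for the IS621 bridge recombinase. Selection was with IPTG (0.07 mM) and kanamycin. Counts of recombinant UMIs, amplified across the donor–target junction, were converted to CPM, averaged, scaled by control-derived factors and reported as log10(CPM+1).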
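Note: IS621 bridge recombinase in Escherichia coli cells against a fixed T5 target plasmid.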

Row | Sequence | recombinant UMI read abundance (log10)
1 | CTCCCTACATGGACCGGTTTTCCCGGTAATCCGTATTTGAG (site CTCCTTACTCT) | 0.00587
2 | CTCCCTACATGGACCGGTTTTCCCGGTAATCCGTATTTGAG (site CTCGCTACTCT) | 0.0283
3 | CTCCCTACATGGACCGGTTTTCCCGGTAATCCGTATTTGAG (site CTCTCTACTCT) | 0.00795
4 | CTCCCTACATGGACCGGTTTTCCCGGTAATCCGTATTTGAG (site CTGCCTACTCT) | 0.0259
5 | CTCCCTACATGGACCGGTTTTCCCGGTAATCCGTATTTGAG (site CTTCCTACTCT) | 0.0102
6 | CTCCCTACATGGACCGGTTTTCCCGGTAATCCGTATTTGAG (site GTCCCTACTCT) | 0.0115
7 | CTCCCTACATGGACCGGTTTTCCCGGTAATCCGTATTTGAG (site TTCCCTACTCT) | 0.00609
8 | CTCCCTGCATGGACCGGTTTTCCCGGTAATCCGTATTTGAG (site CTCCCTACTCT) | 0.664
9 | CTCCCTGCATGGACCGGTTTTCCCGGTAATCCGTATTTGAG (site CTCCCTCCTCT) | 0.00848
10 | CTCCCTGCATGGACCGGTTTTCCCGGTAATCCGTATTTGAG (site CTCCCTGCTCT) | 1.16
11 | CTCCCTGCATGGACCGGTTTTCCCGGTAATCCGTATTTGAG (site CTCCCTTCTCT) | 0.325
12 | CTCCCTTCATGGACCGGTTTTCCCGGTAATCCGTATTTGAG (site CTCCCTACTCT) | 0.0118
13 | CTCCCTTCATGGACCGGTTTTCCCGGTAATCCGTATTTGAG (site CTCCCTCCTCT) | 0.0285
14 | CTCCCTTCATGGACCGGTTTTCCCGGTAATCCGTATTTGAG (site CTCCCTGCTCT) | 0.00848
15 | CTCCCTTCATGGACCGGTTTTCCCGGTAATCCGTATTTGAG (site CTCCCTTCTCT) | 0.898
16 | CTCCGAACATGGACCGGTTTTCCCGGTAATCCGTATTTGCG (site CTCCGAACTCG) | 0.829
17 | CTCCGTGCATGGACCGGTTTTCCCGGTAATCCGTATTTGGC (site CTCCGTGCTGC) | 1.87
18 | CTCGAAACATGGACCGGTTTTCCCGGTAATCCGTATTTGCA (site CTAGAAACTTG) | 0
19 | CTCGAAACATGGACCGGTTTTCCCGGTAATCCGTATTTGCA (site CTCGAAACTTG) | 2.34
20 | CTCGAAACATGGACCGGTTTTCCCGGTAATCCGTATTTGCA (site CTGGAAACTTG) | 0
21 | CTCGAAACATGGACCGGTTTTCCCGGTAATCCGTATTTGCA (site CTTGAAACTTG) | 0
22 | CTCGAACCATGGACCGGTTTTCCCGGTAATCCGTATTTGAC (site CTCGAACCTGT) | 0
23 | CTCGAATCATGGACCGGTTTTCCCGGTAATCCGTATTTGAA (site CTCGAATCTTT) | 1.86

Row | Sequence | recombinant UMI read abundance (log10)
24 | CTCGAGTCATGGACCGGTTTTCCCGGTAATCCGTATTTGTG (site CTCGAGTCTCA) | 1.87
25 | CTCGATACATGGACCGGTTTTCCCGGTAATCCGTATTTGCT (site CTCGATACTAG) | 2.37
26 | CTCGCTACATGGACCGGTTTTCCCGGTAATCCGTATTTGAT (site CTCGCTACTAT) | 1.7
27 | CTCGGATCATGGACCGGTTTTCCCGGTAATCCGTATTTGGA (site CTCGGATCTTC) | 1.56
28 | CTCGGGCCATGGACCGGTTTTCCCGGTAATCCGTATTTGAG (site CTCGGGCCTCT) | 0
29 | CTCGGTCCATGGACCGGTTTTCCCGGTAATCCGTATTTGCA (site CACGGTCCTTG) | 0.779
30 | CTCGGTCCATGGACCGGTTTTCCCGGTAATCCGTATTTGCA (site CCCGGTCCTTG) | 1.6
31 | CTCGGTCCATGGACCGGTTTTCCCGGTAATCCGTATTTGCA (site CGCGGTCCTTG) | 0.00731
32 | CTCGGTCCATGGACCGGTTTTCCCGGTAATCCGTATTTGCA (site CTCGGTCCTTG) | 0.517
33 | CTCGTCGCATGGACCGGTTTTCCCGGTAATCCGTATTTGGG (site CTCGTCGCTCC) | 0.0128
34 | CTCTACACATGGACCGGTTTTCCCGGTAATCCGTATTTGCT (site ATCTACACTAG) | 0.294
35 | CTCTACACATGGACCGGTTTTCCCGGTAATCCGTATTTGCT (site CACTACACTAG) | 1.63
36 | CTCTACACATGGACCGGTTTTCCCGGTAATCCGTATTTGCT (site CCCTACACTAG) | 2.09
37 | CTCTACACATGGACCGGTTTTCCCGGTAATCCGTATTTGCT (site CGCTACACTAG) | 0.891
38 | CTCTACACATGGACCGGTTTTCCCGGTAATCCGTATTTGCT (site CTATACACTAG) | 0.775
39 | CTCTACACATGGACCGGTTTTCCCGGTAATCCGTATTTGCT (site CTCAACACTAG) | 0
40 | CTCTACACATGGACCGGTTTTCCCGGTAATCCGTATTTGCT (site CTCCACACTAG) | 2.02
41 | CTCTACACATGGACCGGTTTTCCCGGTAATCCGTATTTGCT (site CTCGACACTAG) | 0.288
42 | CTCTACACATGGACCGGTTTTCCCGGTAATCCGTATTTGCT (site CTCTAAACTAG) | 0
43 | CTCTACACATGGACCGGTTTTCCCGGTAATCCGTATTTGCT (site CTCTACACTAA) | 0.362
44 | CTCTACACATGGACCGGTTTTCCCGGTAATCCGTATTTGCT (site CTCTACACTAC) | 0.0172
45 | CTCTACACATGGACCGGTTTTCCCGGTAATCCGTATTTGCT (site CTCTACACTAG) | 2.41
46 | CTCTACACATGGACCGGTTTTCCCGGTAATCCGTATTTGCT (site CTCTACACTAT) | 0.916

Row | Sequence | recombinant UMI read abundance (log10)
47 | CTCTACACATGGACCGGTTTTCCCGGTAATCCGTATTTGCT (site CTCTACACTCG) | 0.238
48 | CTCTACACATGGACCGGTTTTCCCGGTAATCCGTATTTGCT (site CTCTACACTGG) | 1.37
49 | CTCTACACATGGACCGGTTTTCCCGGTAATCCGTATTTGCT (site CTCTACACTTG) | 1.15
50 | CTCTACACATGGACCGGTTTTCCCGGTAATCCGTATTTGCT (site CTCTACCCTAG) | 0
51 | CTCTACACATGGACCGGTTTTCCCGGTAATCCGTATTTGCT (site CTCTACGCTAG) | 0.84
52 | CTCTACACATGGACCGGTTTTCCCGGTAATCCGTATTTGCT (site CTCTACTCTAG) | 0.78
53 | CTCTACACATGGACCGGTTTTCCCGGTAATCCGTATTTGCT (site CTCTAGACTAG) | 0.0131
54 | CTCTACACATGGACCGGTTTTCCCGGTAATCCGTATTTGCT (site CTCTATACTAG) | 0.00765
55 | CTCTACACATGGACCGGTTTTCCCGGTAATCCGTATTTGCT (site CTCTCCACTAG) | 0
56 | CTCTACACATGGACCGGTTTTCCCGGTAATCCGTATTTGCT (site CTCTGCACTAG) | 0.00734
57 | CTCTACACATGGACCGGTTTTCCCGGTAATCCGTATTTGCT (site CTCTTCACTAG) | 0.548
58 | CTCTACACATGGACCGGTTTTCCCGGTAATCCGTATTTGCT (site CTGTACACTAG) | 0.0999
59 | CTCTACACATGGACCGGTTTTCCCGGTAATCCGTATTTGCT (site CTTTACACTAG) | 0.644
60 | CTCTACACATGGACCGGTTTTCCCGGTAATCCGTATTTGCT (site GTCTACACTAG) | 0.232
61 | CTCTACACATGGACCGGTTTTCCCGGTAATCCGTATTTGCT (site TTCTACACTAG) | 0.107
62 | CTCTACACATGGACCGGTTTTCCCGGTAATCCGTATTTGTT (site CTCTACACTAA) | 0.93
63 | CTCTACACATGGACCGGTTTTCCCGGTAATCCGTATTTGTT (site CTCTACACTAC) | 0.0026
64 | CTCTACACATGGACCGGTTTTCCCGGTAATCCGTATTTGTT (site CTCTACACTAG) | 1.45
65 | CTCTACACATGGACCGGTTTTCCCGGTAATCCGTATTTGTT (site CTCTACACTAT) | 0.616
66 | CTCTACTCATGGACCGGTTTTCCCGGTAATCCGTATTTGCT (site CTCTACACTAG) | 0.869
67 | CTCTACTCATGGACCGGTTTTCCCGGTAATCCGTATTTGCT (site CTCTACCCTAG) | 1.17
68 | CTCTACTCATGGACCGGTTTTCCCGGTAATCCGTATTTGCT (site CTCTACGCTAG) | 0.00255
